Tests used:
[1] = target: LTA4 hydrolase peptidase activity (Homo sapiens (Human), UniProt P09960); test: Peptidase assay (hydrolysis of L-alanine-p-nitroanilide); type: biochemical; conditions: L-alanine-p-nitroanilide substrate
Experimental: Inhibition of peptidase activity was measured for the compounds of the invention by using methods similar to those described in Kull, F. et al., The Journal of Biological Chemistry 1999, 274 (49): 34683-34690.
In brief, the enzyme (29 nM) was incubated with L-alanine-p-nitroanilide (1 mM) in 50 mM HEPES (pH 7.5), 100 mM KCL, 1% DMSO in the absence or presence of a compound of the invention for 1 hour at ambient temperature. Reaction was terminated by addition of acetic acid (1%). Formation of colored nitro-aniline was measured by the increase in absorbance at 405 nm in a Victor 2 plate reader (Wallac). Spontaneous hydrolysis of the substrate was corrected for by subtracting the absorbance of control incubations without enzyme.

[2] = target: recombinant human LTA4 hydrolase (Homo sapiens (Human), UniProt P09960); test: LTA4 hydrolase homogeneous time resolved fluorescence (HTRF) assay; type: biochemical; conditions: inhibition of hydrolysis of LTA4 to LTB4
Sequence of recombinant human LTA4 hydrolase (P09960 whole entry): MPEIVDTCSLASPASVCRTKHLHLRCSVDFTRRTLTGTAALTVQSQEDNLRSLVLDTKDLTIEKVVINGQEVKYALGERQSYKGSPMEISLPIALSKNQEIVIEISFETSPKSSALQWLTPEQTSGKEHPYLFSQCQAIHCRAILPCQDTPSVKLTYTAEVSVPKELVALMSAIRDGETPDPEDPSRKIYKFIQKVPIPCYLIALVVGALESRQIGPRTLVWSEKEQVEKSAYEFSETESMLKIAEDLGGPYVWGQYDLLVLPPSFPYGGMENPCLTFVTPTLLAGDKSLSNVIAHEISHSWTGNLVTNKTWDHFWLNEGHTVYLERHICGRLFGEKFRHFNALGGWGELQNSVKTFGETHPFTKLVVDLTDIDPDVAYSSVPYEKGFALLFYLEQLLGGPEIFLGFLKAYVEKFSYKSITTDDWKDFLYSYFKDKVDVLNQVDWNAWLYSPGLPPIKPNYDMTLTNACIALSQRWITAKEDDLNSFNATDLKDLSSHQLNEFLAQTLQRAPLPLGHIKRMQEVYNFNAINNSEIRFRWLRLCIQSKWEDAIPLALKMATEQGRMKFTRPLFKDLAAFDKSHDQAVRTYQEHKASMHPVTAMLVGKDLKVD
Experimental: Compounds of the invention were tested in the LTA4 hydrolase homogeneous time resolved fluorescence (HTRF) assay to determine their ability to inhibit the hydrolysis of LTA4 to LTB4. The assay analyzes the amount of LTB4 produced.
LTA4 HTRF assay is a two-step assay involving enzymatic conversion of LTA4 to LTB4, and subsequent quantification of LTB4, product with HTRF assay.
The enzymatic conversion of LTA4 to LTB4 was performed in 384-well plates at ambient temperature in a reaction mixture containing 50 mM HEPES (pH 7.5), 0.5% BSA (fatty acid free), 18 nM recombinant human LTA4 hydrolase, 150 nM LTA4, 1% DMSO in the absence or presence of a compound of the invention. […]
LTB4 formed was quantified with the HTRF assay in which free LTB4 competes with LTB4-XL665 conjugate (acceptor) for anti-LTB4 monoclonal antibody labeled with Europium cryptate (donor), thereby inhibiting the fluorescence energy transfer.
The LTB4 HTRF 384-well assay was carried out by incubating LTB4 samples or standards with LTB4-XL665 conjugate (7.5 ng/well) and anti-LTB4 monoclonal antibody-Europium cryptate conjugate (0.5 ng/well) in 50 mM phosphate, 0.4 M KF and 0.1% casein, buffer (pH 7.0) for two hours at ambient temperature. Plates were read in a RubyStar plate reader (BmG Labtechnologies Inc., NC) simultaneously at 620 nm and 665 nm to obtain signal ratios of 665 nm/620 nm. […]

[3] = system: LTB4 production in human whole blood; test: Whole blood assay (LTB4 release upon calcium ionophore, ELISA), human blood; type: cell-based; conditions: production of LTB4 in whole blood
Experimental: Compounds of the invention were tested for their ability as inhibitors of LTA4 hydrolase in a whole blood assay using human, mouse, rat or dog whole blood in a manner similar to that described in Penning, T. D. et al., J. Med. Chem. (2000), 43(4): 721-735. In this assay, compounds were tested for their ability to inhibit LTB4 release upon stimulation with calcium ionophore. The LTB4 levels in supernatants were measured by ELISA.

Sequence of LTA4 hydrolase peptidase activity (P09960 whole entry): as above

An IC50 [1] of 7.1 nM, an IC50 [2] of 2.1 nM and an IC50 [3] of 62 nM were found for `O=C(O)C1CCN(C(=O)CN2CCC(Nc3ccc(Oc4ccc(-c5ncco5)cc4)cc3)CC2)CC1` [Example 1, 1-(2-(4-((4-(4-(oxazol-2-yl)phenoxy)phenyl)amino)piperidin-1-yl)acetyl)piperidine-4-carboxylic acid] in this work.
An IC50 [1] of 22 nM, an IC50 [2] of 1.8 nM and an IC50 [3] of 100 nM were found for `O=C(O)c1ccc(CN2CCCC(CNc3ccc(Oc4ccc(Cl)cc4)cc3)C2)cc1` (stereo not drawn) [Example 3, 4-((3-(((4-(4-chlorophenoxy)phenyl)amino)methyl)piperidin-1-yl)methyl)benzoic acid] in this work.

Reference: patent publication US10202362B2, “Inhibitors of leukotriene A4 hydrolase” (Celtaxsys, Inc., priority 2016, dated 2019)
